Source: patent US20260297031A1, “HYDROXYLAMINE-BASED BCR-ABL1 INHIBITORS FOR TREATMENT OF CANCER” (University of Georgia Research Foundation, Inc., priority 2023, published 2026)
In brackets after ≈: the same amount, converted by molar mass. Entries after “also recorded” stand apart in the source; their conditions may differ.

Tests used:
[1] = Plasma protein binding by equilibrium dialysis, rat plasma; assay type: in vitro ADME
Protocol: (§1) Plasma Protein Binding by Equilibrium Dialysis (Independently Performed by Pharmaron Inc., Ninqbo, CN)
(§2) Initially, 1 mM solutions of test compounds and the control compound (Ketoconzaole) were prepared in DMSO. After this, dialysis membranes were soaked in ultrapure water for 60 min to separate strips, followed by 20% aq. ethanol for 20 min, and finally in a dialysis buffer for 20 min. […] After this, 597 μL of blank plasma solution followed by 3 μL of the working solutions of either test compounds or control compound were added to a new plastic plate or separate plastic tube and the solutions were vortexed at 1,000 rpm for 2 min. Immediately after this, 50 μL of spiked plasma solution suspension was transferred to a 96-well plate to act as T=0 control. The remaining samples were treated in the same manner, whereby all remaining spiked plasma solutions were added to the incubator for the duration of the study.
Cells were then loaded with 120 μL of the plasma samples and dialyzed against an equal volume of dialysis buffer (PBS). […] At the end of incubation, the lid was removed and 50 μL of post-dialysis samples were removed from both buffer and plasma solution chambers into a separate 96-well plate for analysis. The plasma solutions (50 μL) were then added to the buffer samples along with an equal volume of PBS (50 μL) to the collected plasma solution samples. The plate was shaken at 1,000 rpm for 2 min and 400 μL of acetonitrile containing an appropriate internal standard was added to precipitate protein and release compound. The samples were then vortexed at 1,000 rpm for an additional 10 min followed by centrifugation at 3,220 g for 30 min. […] The samples were analyzed by LC-MS/MS and 100 μL of distilled water was added to each sample prior to analysis.
(§3) Concentrations of test compounds and control compound in buffer and plasma solution chambers was determined and percentages of test compounds and control compound bound using the following equations (mean of n=2 replicates): […]

[2] = LogD7.4 by shake flask method; settings: octanol/phosphate buffer, pH 7.4
Protocol: Test compounds and control compound (Nicardipine) were initially prepared as 10 mM solutions in DMSO and 5 μL of each sample solution was placed into one 96-well plate. […] From the octanol buffer phase, 5 μL was transferred to a new 96-well plate followed by addition of 495 μL of a 1:1 (v/v) mixture of H2O and acetonitrile to yield 100-fold diluted samples. […] Diluted samples were then vortexed for 5 min at 1,000 rpm. 50 μL of buffer samples were then transferred to a new 96-well plate, followed by addition of 450 μL of a 1:1 (v/v) mixture of H2O and acetonitrile mixture containing internal standard yielding 10-fold diluted buffer samples. Samples were vortexed for 5 min at 1,000 rpm and then all samples underwent analysis by LC-MS/MS.

[3] = Metabolic stability in human liver microsomes; assay type: in vitro ADME; settings: human
Protocol: (§4) Metabolic Stability in Liver Microsomes (Independently Performed by Pharmaron Inc., Ninqbo, CN)
(§5) This experiment was carried out under two separate set of conditions: i) with Cofactors (NADPH), which consisted of adding 25 μL of 10 mM NADPH to the incubations, giving a final NADPH concentration of 1 mM, and ii) without Cofactors (NADPH), which consisted of adding 25 μL of 100 mM phosphate buffer to the incubations. Under both sets of conditions, the final concentration of microsomes were 0.5 mg/mL. […] Samples were then centrifuged at 3,220 g for 40 min and aliquots of 100 μL of the supernatant were mixed with 100 μL of ultra-pure H2O and analyzed by LC-MS/MS.
(§6) Peak areas were determined from extracted ion chromatograms. The slope value, k, was determined by linear regression of the natural logarithm of the remaining percentage of the parent drug vs incubation time curve.

Aqueous solubility = settings: phosphate buffer, pH 7.4, aqueous buffer
Protocol: Solubility Determinations (Independently Performed by Pharmaron Inc., Ninqbo, CN)
Test compounds and control compounds (progesterone or diclofenac) were initially prepared as 10 mM DMSO stock solutions. […] After such time, plugs and stir sticks were removed and the samples from the solubility sample plate were transferred into the filter plate. All the samples were then filtered and 5 μL of filtrate was taken and added along with 5 μL of DMSO and 490 μL of a 1:1 (v/v) mixture of H2O and acetonitrile containing internal standard (100 nM alprazolam, 200 nM Caffeine and 100 nM tolbutamide) to the plate yielding a final concentration of 3 μM. The samples were then analyzed by LC-MS and diluted according to the peak shape with ultrapure water.
Filtrate was analyzed and quantified against a standard of known concentration using LC coupled with MS peak identification and quantitation. Solubility values of test compounds and progesterone were calculated as follows and are presented as the mean of n=2 replicates: […]

[4] = Metabolic stability in rat hepatocytes; assay type: in vitro ADME; settings: rat
Protocol: All calculations were carried out using Microsoft Excel. Peak areas were determined from extracted ion chromatograms.

Molt-4 cells = test: In vitro CTG antiproliferative assay, Molt-4; assay type: cell-based; settings: for IC50: Homo sapiens, Molt-4 (BCR-ABL1−), 72 h
Protocol: (§7) In Vitro CTG Assay (Independently Performed By: Crown Bioscience, Taicanq, CN)
(§8) Cells listed in the table above were initially harvested during logarithmic growth period followed by re-suspension and counting using a Vi cell counter (cell viability was measured by trypan blue exclusion assay). Cells were then diluted and 90 μL cell suspensions were added to 96-well plates. Plates were then incubated overnight in a humidified incubator at 37° C. with 5% CO2. To(Time 0) plate was then taken by 10 μL of culture medium being added to each well followed by 50 μL CellTiter-Glo® Reagent being added. The contents were then mixed for 2 min on an orbital shake to facilitate cell lysis. Next, the plate was incubated at room temperature for 10 min to stabilize luminescent signal. Blackseal black sticker was placed to the bottom of each plate and the luminescence was recorded using EnVision multi label reader. Test compounds and 10 μL of each 10× compound working solutions was added according to the plate inoculation map. Plates were then placed back into the incubator and after 72 h, 50 μL CellTiter-Glo® was added to each well. Contents were then mixed for 2 min on an orbital shaker to facilitate cell lysis. The plate then was incubated at room temperature for 10 min to stabilize luminescent signal. Blackseal black sticker was placed to the bottom of each plate and the luminescence recorded using EnVision multi label reader.
Relative IC50 was calculated with a dose-response curve fitted using nonlinear regression model with a sigmoidal dose response on GraphPad Prism version 9.5.1. […] The formula for calculating survival rate was (n=3 replicates): […]

K562 cells = test: Cell viability assay, K562; assay type: cell-based
[5] = tested on: P-glycoprotein (P-gp) and/or breast cancer resistance protein (BCRP); settings: cited from earlier work
[6] = Metabolic stability in human hepatocytes
Protocol: Metabolic Stability in Hepatocytes (Independently Performed by Pharmaron Inc., Ninqbo, CN)
After thawing was complete, hepatocytes were transferred into a 50 mL conical tube containing thawing medium and the tube was then placed into a centrifuge and spun at 100 g for 10 min. […] Using AO/PI staining, cells were counted to determine the viable cell density. […] Subsequently, 2 μL of the 100 μM test compounds or control compound solutions was transferred into the respective wells of the 96-well non-coated plate to start the reaction. […] Aliquots of 100 μL of the supernatant were then diluted by 100 μL of ultra-pure water, and the mixture was analyzed by LC-MS/MS.
All calculations were carried out using Microsoft Excel. Peak areas were determined from extracted ion chromatograms. The in-vitro half-life (t1/2) of parent compound was determined by regression of the percent parent disappearance vs. time curve.

[7] = Plasma protein binding by equilibrium dialysis, human plasma; assay type: in vitro ADME
Protocol: as §1, §2
Cells were then loaded with 120 μL of the plasma samples and dialyzed against an equal volume of dialysis buffer (PBS). […] At the end of incubation, the lid was removed and 50 μL of post-dialysis samples were removed from both buffer and plasma solution chambers into a separate 96-well plate for analysis. The plasma solutions (50 μL) were then added to the buffer samples along with an equal volume of PBS (50 μL) to the collected plasma solution samples. The plate was shaken at 1,000 rpm for 2 min and 400 μL of acetonitrile containing an appropriate internal standard was added to precipitate protein and release compound. The samples were then vortexed at 1,000 rpm for an additional 10 min followed by centrifugation at 3,220 g for 30 min. Supernatant (250 μL) was then added to a new 96-well plate and centrifuged again at 3,220 g for 30 min and 100 μL of this supernatant was then added to a new 96-well plate for analysis. The samples were analyzed by LC-MS/MS and 100 μL of distilled water was added to each sample prior to analysis.
as §3

[8] = Metabolic stability in rat liver microsomes; assay type: in vitro ADME; settings: rat
Protocol: as §4, §5, §6

SUP-B15 cells = test: In vitro CTG antiproliferative assay, SUP-B15; assay type: cell-based; settings: SUP-B15, 72 h
Protocol: (§9) Cells listed in the table above were initially harvested during logarithmic growth period followed by re-suspension and counting using a Vi cell counter (cell viability was measured by trypan blue exclusion assay). Cells were then diluted and 90 μL cell suspensions were added to 96-well plates. […] To(Time 0) plate was then taken by 10 μL of culture medium being added to each well followed by 50 μL CellTiter-Glo® Reagent being added. The contents were then mixed for 2 min on an orbital shake to facilitate cell lysis. Next, the plate was incubated at room temperature for 10 min to stabilize luminescent signal. Blackseal black sticker was placed to the bottom of each plate and the luminescence was recorded using EnVision multi label reader. Test compounds and 10 μL of each 10× compound working solutions was added according to the plate inoculation map. […] Contents were then mixed for 2 min on an orbital shaker to facilitate cell lysis. The plate then was incubated at room temperature for 10 min to stabilize luminescent signal. Blackseal black sticker was placed to the bottom of each plate and the luminescence recorded using EnVision multi label reader.

MEG-01 cells = test: In vitro CTG antiproliferative assay, MEG-01; assay type: cell-based; settings: MEG-01, 72 h
Protocol: as §7
as §8, with “Plates were then placed back into the incubator and after 72 h, 50 μL CellTiter-Glo® was added to each well. Contents were then mixed for 2 min on an orbital shaker to facilitate cell lysis. The plate then was incubated at room temperature for 10 min to stabilize luminescent signal.” left out
Relative IC50 was calculated with a dose-response curve fitted using nonlinear regression model with a sigmoidal dose response on GraphPad Prism version 9.5.1. […]

BCR-ABL1 T315I = target: T1, BCR-ABL1 T315I (Homo sapiens, UniProt P00519, T315I); test: KinaseProfiler radiometric kinase assay, BCR-ABL1 T315I; assay type: biochemical; settings: gatekeeper mutation
T1 construct: BCR (fusion partner, as the printed name BCR-ABL1 says)

mutant BCR-ABL1 = test: KinaseProfiler radiometric kinase assay, mutant BCR-ABL1 kinases as a group; assay type: biochemical, human; settings: read-out: IC50 against (imatinib resistant / relevant) mutant BCR-ABL1 kinases; group of mutants
Description: Biochemical Human RTK Kinase Enzymatic Radiometric Assay, KinaseProfiler (Independently Performed by Eurofins Cerep SA, FR)

CHO-K1 cells = settings: +/− S9; 0.2-500 μM
Description: High content analysis and fluorescent image analysis were used to detect micronuclei. Cyclophosphamide was the positive control in the presence of metabolic activation by rat liver S9 and mitomycin C was the positive control without metabolic activation by rat liver S9.

KU812 cells = test: In vitro CTG antiproliferative assay, KU812; assay type: cell-based; settings: KU812, 72 h
Protocol: as §9

With `COc1cc(Nc2c(C#N)cnc3cc(OCCCN4CCN(C)CC4)c(OC)cc23)c(Cl)cc1Cl` [Bosutinib, bosutinib, reference compound] the “plasma protein binding, in words” value [1] was “comparable unbound plasma protein fraction”, the “fu, plasma %” value ([1]; 5 μM, 360 min) was 7.2% and the logD [2] was 3.1. The “stability in liver microsomes, in words” value [3] was “significant degradation”, the solubility kinetic at 2 h (Aqueous solubility) was 14 µM (≈ 7.43 µg/mL) and the “stability in hepatocytes, in words” value [4] was “comparably enhanced stability”. For the same compound, the IC50 (Molt-4 cells) was greater than 2 µM, the “antiproliferative activity, in words” value (K562 cells) was “picomolar activity” and the “efflux transporter substrate (background)” value [5] was “P-gp substrates; also recorded: potent substrates for efflux transporters”. The “stability in hepatocytes, in words” value [6] was “comparably enhanced stability”, the remaining at 0.5 min ([6]; hepatocytes) was 100% and the remaining at 0.5 h ([6]; hepatocytes) was 79.3%. For the same compound, the remaining at 1 h ([6]; hepatocytes) was 54%, the remaining at 2 h ([6]; hepatocytes) was 20.7% and the “plasma protein binding, in words” value ([7]; human) was “comparable unbound plasma protein fraction”. For the same compound, the “% Bound” value ([7]; human plasma, 360 min, 5 µM) was 95.47%, the “% Unbound” value ([7]; human plasma, 360 min, 5 µM) was 4.52% and the “fu, plasma %” value ([7]; human, 5 μM, 360 min) was 4.5%. The “stability in liver microsomes, in words” value [8] was “significant degradation”.
With `COc1cc(Nc2c(C#N)cnc3cc(OCCON4CCN(C)CC4)c(OC)cc23)c(Cl)cc1Cl` [Compound 7, 4-((2,4-dichloro-5-methoxyphenyl)amino)-6-methoxy-7-(2-((4-methylpiperazin-1-yl)oxy)ethoxy)quinoline-3-carbonitrile] the “antiproliferative activity, in words” value (SUP-B15 cells) was “reduced activity”, the “antiproliferative activity, in words” value (MEG-01 cells) was “potent antiproliferative activity; also recorded: excellent antiproliferative activity” and the “activity against BCR-ABL1 T315I, in words” value (BCR-ABL1 T315I) was “slightly reduced activity”. For the same compound, the IC50 (Molt-4 cells) was greater than 2 µM, the “antiproliferative activity, in words” value (Molt-4 cells; Molt-4, 72 h) was “minimal activity” and the IC50 (mutant BCR-ABL1) was less than 0.001 µM. For the same compound, the Micronucleus result (CHO-K1 cells) was “neither mutagenic nor genotoxic; also recorded: Negative” and the “antiproliferative activity, in words” value (KU812 cells) was “potent antiproliferative activity; also recorded: excellent antiproliferative activity”.
